From patent publication US5739169A, “Aromatic compounds for inhibiting immune response” (Procept, Incorporated, priority 1996, dated 1998)
In brackets after ≈: the same amount, converted by molar mass.

What was measured:
Assay type in all cases: cell-based
[1] = tested on: human peripheral blood lymphocyte (PBL); assay: cells
[2] = tested on: human transformed T cell line, H9; assay: H9 proliferation Assay; details: 3 days culture, 3H-thymidine pulse on day 3, harvest 16 hours later
Experimental: The human transformed T cell line, H9 (ATCC Rockville, Md.), was cultured at 3000/well in RPMI 1640 medium supplemented with 5 % human AB serum, glutamine (2 mM), penicillin/streptomycin (50 U/ml, 50 micrograms/ml), sodium pyruvate (1 mM), HEPES (10 mM), and non-essential amino acids (1X) in a total of 200 microliter/well in a 96 well plate. The H9 cells were cultured with and without various dilutions of test compound for 3 days.
The cells were pulsed on day 3 with 1 microCurie/well of ^3 H-thymidine using a standard procedure known in the art. The cells were then harvested 16 hours later onto glass fiber filters using a TOMTEC cell harvester. Cellular proliferation was assessed by thymidine incorporation and measured by liquid scintillation counting using a Beta plate counter (Pharmacia, Inc., Piscataway, N.J.). The IC 50 represents the amount of compound necessary to inhibit 50% of the thymidine incorporation.

[3] = tested on: PBLs; assay: Mixed Lymphocyte Reactions (MLR) Assay; details: Homo sapiens, 3H-thymidine pulse on day 5, harvest 16 hours later
Experimental: Mixed Lymphocyte Reactions (MLR) Assay
Blood samples were drawn from two donors and the lymphocytes were separated out by Ficoll gradient by standard procedures known in the art. The isolated lymphocytes from done 1 were left untreated and the cells from donor 2 where suspended in Hanks Balanced Salt Solution at 10^7 /ml and treated with 50 micrograms/ml mitomycin C for 30 minutes at 37° C.
The PBLs were cultured in RPMI 1640 medium containing 5% human AB serum, glutamine (2 mM), penicillin/streptomycin (50 micrograms/ml / 50 micrograms/ml), sodium pyruvate (1 mM) and HEPES buffer (10 mM). For assay purposes, 10^5 PBLs from each donor were added to each well of a 96-well plate in a total volume of 200 microliters along with various dilutions of test compound.
The cultures were pulsed with 1 microCurie ^3 H-thymidine on day 5 and harvested 16 hours later onto a glass fiber filter. Thymidine incorporation was measured by liquid scintillation counting using a Beta plate counter. The IC50 represents the amount of compound necessary to inhibit 50 % of the thymidine incorporation.

Compound	IC50 [1]	also measured
COc1cc(-c2ccc(Nc3ccccc3C(=O)O)c(OC)c2)ccc1N [PRO3249]	0.005 µg/mL (≈ 0.0137 µM)	
COc1cc(-c2ccc(Nc3ccccc3C(=O)O)c(OC)c2)ccc1NC(=O)OC(C)(C)C [PRO4323]	0.015 µg/mL (≈ 0.0323 µM)	
COc1cc(-c2ccc(Nc3ccccc3C(=O)O)c(OC)c2)ccc1NC(C)=O [PRO4379]	0.133 µg/mL (≈ 0.327 µM)	
COc1cc(-c2ccc(Nc3ccccc3C(=O)O)c(OC)c2)ccc1Br [PRO4402]	0.03 µg/mL (≈ 0.07 µM)	
COc1cccc(-c2ccc(Nc3ccccc3C(=O)O)c(OC)c2)c1 [PRO4403]	0.012 µg/mL (≈ 0.0343 µM)	
COc1cc(-c2ccc([N+](=O)[O-])c(OC)c2)ccc1Nc1ccccc1C(=O)O [PRO4636]		IC50 [2]: 3.2 µg/mL (≈ 8.11 µM)
Nc1ccc(-c2ccc(Nc3ccccc3C(=O)O)cc2)cc1 [PRO4707]	0.086 µg/mL (≈ 0.283 µM)	
Nc1ccc(C(=O)c2ccc(Nc3ccccc3C(=O)O)cc2)cc1 [PRO4708]	0.345 µg/mL (≈ 1.04 µM)	
O=C(O)c1ccccc1Nc1ccc(-c2ccccc2)cc1 [PRO4917]	0.296 µg/mL (≈ 1.02 µM)	
Nc1cccc(C(=O)c2cccc(Nc3ccccc3C(=O)O)c2)c1 [PRO4919]		IC50 [3]: 5 µg/mL (≈ 15 µM)
COC(=O)c1ccccc1Nc1ccc(-c2ccc(N)c(OC)c2)cc1OC [PRO5021]	0.037 µg/mL (≈ 0.0978 µM)	
CC(=O)Nc1ccc(-c2ccc(Nc3ccccc3C(=O)O)cc2)cc1 [PRO5023]	> 1 µg/mL	
COc1cc(-c2ccc(Nc3ccccc3-c3nn[nH]n3)c(OC)c2)ccc1N [PRO5105]	> 1 µg/mL	
COc1cc(-c2ccc([N+](=O)[O-])c(OC)c2)ccc1Nc1ccccc1-c1nn[nH]n1 [PRO5106]	> 1 µg/mL	
COc1cc(-c2ccc(N(C)C)c(OC)c2)ccc1Nc1ccccc1C(=O)O [PRO6365]	0.194 µg/mL (≈ 0.494 µM)	
CNc1ccc(-c2ccc(Nc3ccccc3C(=O)O)c(OC)c2)cc1OC [PRO6370]	0.01 µg/mL (≈ 0.0264 µM)	
